Data on two molecules can be found in patent publication US20120258975A1, “Potent Small Molecule Inhibitors of Autophagy, and Methods of Use Thereof” (Shanghai Institute of Organic Chemistry, priority 2009, published 2012).

In data set [1] the test system is LC3II. Nature of the data set: Endogenous LC3II western blot in H4-LC3, 293T and MEF cells. Type of data set: cell-based. The conditions noted are these: MBCQ and rapamycin co-treated versus rapamycin alone. How it is done:
To confirm the inhibition of autophagy by MBCQ, H4-LC3 cells, 293T cells and mouse embryonic fibroblast cells were treated with MBCQ and the levels of endogenous LC3II were measured by western blot.

The test system of data set [2] is LC3-GFP (H4-LC3-GFP cells). Nature of the data set: Starvation induced autophagy in H4-LC3-GFP cells. The data set is classed as cell-based. Conditions: Hanks buffer 1 h; MBCQ 5 μM, 3-MA 10 mM, wortmannin 0.1 μM. The source says: FIG. 2 depicts results relating to MBCQ inhibition of autophagy induced by starvation. Quantitative measurement of LC3-GFP spot number per cell (a), spot size per cell (b) and spot intensity per cell (c) using HCS and expressed as % of control.

The target in data set [3] is T1, Vps34 complex (Homo sapiens, UniProt Q8NEB9).
T1 construct: expressed in transfected cells; host or cells: 293T
Nature of the data set: Vps34 complex kinase assay (PtdIns phosphorylation, TLC). Type of data set: biochemical. The conditions noted are these: immunoprecipitated HA-Vps34 complex from 293T; wortmannin 10 uM.

The subject of data set [4] is H4 cells. Nature of the data set: H4 cell growth and cell cycle. The conditions noted are these: 5 μM for 24 h and 48 h. Type of data set: cell-based. How it is done:
FIG. 6 depicts results showing that MBCQ has little effect on H4 cell growth. A, H4 cells were treated with MBCQ (5 μM) for 5 days and harvested daily for cell number counting in the presence of trypan blue; B, H4 cells were treated with MBCQ (5 μM) for 24 h and 48 h, and then cells were fixed with 70% ethanol, stained with propidium iodide (40 μg/mL) and incubated with RNase (200 μg/mL solution for 30 min. The cell cycle profile and possible apoptotic cell death were analyzed by flow cytometer.
To characterize the effect of MBCQ on cellular activity, the effect of MBCQ on cell survival and cell cycle was determined as outlined below. H4 cells were treated with MBCQ (5 μM) for 5 days and harvested daily for cell number counting in the presence of trypan blue. […] The cell cycle profile and possible apoptotic cells in H4 cells treated with MBCQ (5 μM) for 24 h and 48 h was also determined.

Data set [5] has as its system ubiquitin-proteasomal degradation pathway. Nature of the data set: Proteasomal degradation pathway (pEGFP-CL1, polyubiquitination). The data set is classed as cell-based. Here is the method: In addition, the effect of MBCQ on proteasomal degradation pathway using pEGFP-CL1, a GFP fusion with a short-lived peptide was determined (Bence, N. F., Sampat, R. M., and Kopito, R. R. (2001). Impairment of the ubiquitin-proteasome system by protein aggregation. Science 292, 1552-1555).

Data set [6] has as its system MCF-7 cells. Nature of the data set: MCF-7 cells under glucose-free condition. Type of data set: cell-based. Here is the method: FIG. 11 depicts results showing that selected cancer cell lines are sensitive to MBCQ and its active derivatives under glucose free condition. BT549 cells were treated with indicated concentrations of C43 for 24 h in normal DMEM (A) or under serum free condition (B). The cell viability was assayed by MTT or harvested for western blotting assay with anti-LC3 (C). MCF-7 cells were treated with DMSO (1‰), C43 (10 μM) in DMEM with (D) or without (E) glucose, for 12 h. The cell viability was assayed by MTT or images (F). […] Bcap-37 cells were treated with indicated concentrations of C43 for 24 h in normal DMEM (H) or under serum free condition (I). The cell viability was assayed by MTT or images (J) And the cell lysates treated with C43 for indicated time were analyzed by western blotting using anti-PARP (L) or anti-LC3 (M) and α-tubulin was used as a loading control. (K) Cell cycle profile of Bcap-37 treated with C43. Bcap-37 cells were treated with DMSO (0.1%) (left figure), C43 (10 μM) (right figure) for 12 h. The cells were then fixed with 70% ethanol, stained with propidium iodide (PI, 40 μg/mL) and treated with RNase enzyme (200 μg/mL) solution for 30 min in dark. Cell cycle profile and possible apoptotic death were statistics analyzed by flow cytometer. […]

Data set [7] has as its system MDA-MB-231 cells. Nature of the data set: MDA-MB-231 cell survival under serum free condition. The data set is classed as cell-based. How it is done:
Since autophagy is activated under metabolic stress conditions to support cell survival, compounds were tested to determine if they promote cell death under starvation condition.

T1 sequence (Q8NEB9 whole entry): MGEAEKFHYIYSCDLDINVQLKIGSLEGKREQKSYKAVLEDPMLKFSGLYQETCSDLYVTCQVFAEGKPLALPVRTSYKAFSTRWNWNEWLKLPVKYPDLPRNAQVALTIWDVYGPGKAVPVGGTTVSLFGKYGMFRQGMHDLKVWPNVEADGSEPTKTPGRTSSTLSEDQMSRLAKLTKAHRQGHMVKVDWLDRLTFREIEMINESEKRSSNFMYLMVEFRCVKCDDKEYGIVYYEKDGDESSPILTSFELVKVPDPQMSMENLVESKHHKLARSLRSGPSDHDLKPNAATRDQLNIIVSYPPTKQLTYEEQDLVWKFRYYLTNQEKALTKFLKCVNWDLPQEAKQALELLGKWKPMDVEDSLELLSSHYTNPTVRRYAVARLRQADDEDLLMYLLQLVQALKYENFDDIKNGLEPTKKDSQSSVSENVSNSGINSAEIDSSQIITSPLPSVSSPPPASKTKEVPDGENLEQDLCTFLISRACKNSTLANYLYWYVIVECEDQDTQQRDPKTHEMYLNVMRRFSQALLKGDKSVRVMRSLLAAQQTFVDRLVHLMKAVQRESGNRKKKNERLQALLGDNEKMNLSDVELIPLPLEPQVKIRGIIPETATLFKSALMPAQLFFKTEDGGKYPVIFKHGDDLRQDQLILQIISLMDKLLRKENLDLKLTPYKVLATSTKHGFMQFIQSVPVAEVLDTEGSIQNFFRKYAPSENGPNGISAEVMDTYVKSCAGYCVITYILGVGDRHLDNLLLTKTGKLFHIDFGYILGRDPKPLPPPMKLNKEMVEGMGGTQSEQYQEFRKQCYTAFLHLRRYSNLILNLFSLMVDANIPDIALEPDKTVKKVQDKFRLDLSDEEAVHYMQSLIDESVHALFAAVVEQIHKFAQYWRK
T1 sequence (Q14457 whole entry partner): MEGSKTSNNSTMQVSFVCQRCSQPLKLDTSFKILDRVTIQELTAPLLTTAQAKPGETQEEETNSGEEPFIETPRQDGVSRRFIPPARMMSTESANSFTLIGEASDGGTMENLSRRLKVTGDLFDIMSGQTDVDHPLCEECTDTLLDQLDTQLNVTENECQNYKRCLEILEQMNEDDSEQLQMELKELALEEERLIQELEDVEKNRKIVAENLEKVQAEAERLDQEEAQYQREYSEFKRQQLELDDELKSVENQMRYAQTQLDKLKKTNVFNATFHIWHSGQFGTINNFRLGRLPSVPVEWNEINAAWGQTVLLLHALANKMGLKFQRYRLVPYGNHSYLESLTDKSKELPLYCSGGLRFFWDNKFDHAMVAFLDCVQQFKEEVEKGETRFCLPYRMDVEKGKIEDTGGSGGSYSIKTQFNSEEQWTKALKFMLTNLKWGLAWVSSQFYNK

Regarding `Clc1ccc2ncnc(NCc3ccc4c(c3)OCO4)c2c1` [MBCQ], in data set [1], the “levels of LC3II” value is “consistently reduced”. Besides, the “starvation induced autophagy (LC3-GFP spot number, size, intensity)” value in data set [2] was “significantly reduced”. The “phosphorylation of PtdIns by Vps34 complex” value in data set [3] was “not a direct inhibitor of Vps34 enzymatic activity”. Moreover, in data set [4], the cell cycle distribution entry is “no detectable effect on cell cycle distribution”. In addition, in data set [5], the “general levels of polyubiquitination” value is recorded as “no effect on the general levels of polyubiquitination” and the “levels of pEGFP-CL1” value is “does not affect the levels of pEGFP-CL1”.

For `Fc1ccc(CNc2ncnc3ccc(F)cc23)cc1` [C43, 6-fluoro-N-(4-fluorobenzyl)quinazolin-4-amine], the “autophagy (western blot, LC3)” value in data set [6] (basal and glucose-free condition) is recorded as “inhibited autophagy”. For the same molecule, the cell survival entry in data set [6] (glucose-free condition) and in data set [7] was “reduced the survival” throughout.
